Reference: ChEMBL document CHEMBL3885881, “DrugMatrix”

Species: Rattus norvegicus
Assay: DrugMatrix - Regimen: Daily Repeat
Assay type: toxicity, organism-based, Sprague-Dawley
Set-up: regimen Daily Repeat, gender Male, age 6-8 weeks
Settings: in vivo, po, 110 mg/kg, route oral GAVAGE, dose level Low, vehicle 100 % WATER; for ABSOLUTE BASOPHIL / ABSOLUTE EOSINOPHIL / ABSOLUTE LYMPHOCYTE / ABSOLUTE MONOCYTE / ABSOLUTE SEGMENTED NEUTROPHIL / BASOPHIL / EOSINOPHIL / ERYTHROCYTE COUNT / HEMATOCRIT / HEMOGLOBIN / LEUKOCYTE COUNT / LYMPHOCYTE / MEAN CORPUSCULAR HEMOGLOBIN / MEAN CORPUSCULAR HEMOGLOBIN CONCENTRATION / MEAN CORPUSCULAR VOLUME / MONOCYTE / NEUTROPHIL / NUCLEATED RED BLOOD CELLS / PLATELET COUNT: tissue Blood; for ALANINE AMINOTRANSFERASE / ALBUMIN / ALKALINE PHOSPHATASE / ASPARTATE AMINOTRANSFERASE / BLOOD UREA NITROGEN / CARBON DIOXIDE / CHLORIDE / CHOLESTEROL / CREATINE PHOSPHOKINASE / CREATININE / GLUCOSE / LACTATE DEHYDROGENASE / LIPASE / PHOSPHORUS / POTASSIUM / SODIUM / TOTAL BILIRUBIN / TOTAL PROTEIN / URIC ACID: tissue Plasma

CCOC(=O)n1ccn(C)c1=S [CARBIMAZOLE]
ABSOLUTE BASOPHIL (72 h, time 3 day): 0 CELLS/uL | ABSOLUTE EOSINOPHIL (72 h, time 3 day): 15.67 CELLS/uL | ABSOLUTE LYMPHOCYTE (72 h, time 3 day): 5022.67 CELLS/uL | ABSOLUTE MONOCYTE (72 h, time 3 day): 37.33 CELLS/uL | ABSOLUTE SEGMENTED NEUTROPHIL (72 h, time 3 day): 357.67 CELLS/uL | BASOPHIL (72 h, time 3 day): 0% | EOSINOPHIL (72 h, time 3 day): 0.33% | ERYTHROCYTE COUNT (72 h, time 3 day): 5.37 x10E6/uL | HEMATOCRIT (72 h, time 3 day): 33.5% | HEMOGLOBIN (72 h, time 3 day): 13.37 G/DL | LEUKOCYTE COUNT (72 h, time 3 day): 5.43 x10E3/uL | LYMPHOCYTE (72 h, time 3 day): 92% | MEAN CORPUSCULAR HEMOGLOBIN (72 h, time 3 day): 24.9 pg | MEAN CORPUSCULAR HEMOGLOBIN CONCENTRATION (72 h, time 3 day): 39.9 G/DL | MEAN CORPUSCULAR VOLUME (72 h, time 3 day): 62.43 fL | MONOCYTE (72 h, time 3 day): 0.67% | NEUTROPHIL (72 h, time 3 day): 7% | NUCLEATED RED BLOOD CELLS (72 h, time 3 day): 0 /100WBC | PLATELET COUNT (72 h, time 3 day): 1166.67 x10E3/uL | ALANINE AMINOTRANSFERASE (72 h, time 3 day): 39.33 u/L | ALBUMIN (72 h, time 3 day): 4.23 G/DL | ALKALINE PHOSPHATASE (72 h, time 3 day): 314 u/L | ASPARTATE AMINOTRANSFERASE (72 h, time 3 day): 65.33 u/L | BLOOD UREA NITROGEN (72 h, time 3 day): 19.33 mg/dL | CARBON DIOXIDE (72 h, time 3 day): 29.33 mmol/L | CHLORIDE (72 h, time 3 day): 102 MEQ/L | CHOLESTEROL (72 h, time 3 day): 81.67 mg/dL | CREATINE PHOSPHOKINASE (72 h, time 3 day): 137 u/L | CREATININE (72 h, time 3 day): 0.2 mg/dL | GLUCOSE (72 h, time 3 day): 129.33 mg/dL | LACTATE DEHYDROGENASE (72 h, time 3 day): 155 u/L | LIPASE (72 h, time 3 day): 9.33 u/L | PHOSPHORUS (72 h, time 3 day): 10.27 mg/dL | POTASSIUM (72 h, time 3 day): 6.06 MEQ/L | SODIUM (72 h, time 3 day): 147.63 MEQ/L | TOTAL BILIRUBIN (72 h, time 3 day): 0.2 mg/dL | TOTAL PROTEIN (72 h, time 3 day): 6 G/DL | URIC ACID (72 h, time 3 day): 0.7 mg/dL | ABSOLUTE BASOPHIL (120 h, time 5 day): 0 CELLS/uL | ABSOLUTE EOSINOPHIL (120 h, time 5 day): 0 CELLS/uL | ABSOLUTE LYMPHOCYTE (120 h, time 5 day): 14370.67 CELLS/uL | ABSOLUTE MONOCYTE (120 h, time 5 day): 96 CELLS/uL | ABSOLUTE SEGMENTED NEUTROPHIL (120 h, time 5 day): 766.67 CELLS/uL | BASOPHIL (120 h, time 5 day): 0% | EOSINOPHIL (120 h, time 5 day): 0% | ERYTHROCYTE COUNT (120 h, time 5 day): 6.23 x10E6/uL | HEMATOCRIT (120 h, time 5 day): 38.1% | HEMOGLOBIN (120 h, time 5 day): 14.73 G/DL | LEUKOCYTE COUNT (120 h, time 5 day): 15.23 x10E3/uL | LYMPHOCYTE (120 h, time 5 day): 94% | MEAN CORPUSCULAR HEMOGLOBIN (120 h, time 5 day): 23.67 pg | MEAN CORPUSCULAR HEMOGLOBIN CONCENTRATION (120 h, time 5 day): 38.73 G/DL | MEAN CORPUSCULAR VOLUME (120 h, time 5 day): 61.13 fL | MONOCYTE (120 h, time 5 day): 0.67% | NEUTROPHIL (120 h, time 5 day): 5.33% | NUCLEATED RED BLOOD CELLS (120 h, time 5 day): 0 /100WBC | PLATELET COUNT (120 h, time 5 day): 998 x10E3/uL | ALANINE AMINOTRANSFERASE (120 h, time 5 day): 56.67 u/L | ALBUMIN (120 h, time 5 day): 4.53 G/DL | ALKALINE PHOSPHATASE (120 h, time 5 day): 416.67 u/L | ASPARTATE AMINOTRANSFERASE (120 h, time 5 day): 76.67 u/L | BLOOD UREA NITROGEN (120 h, time 5 day): 19 mg/dL | CARBON DIOXIDE (120 h, time 5 day): 23.33 mmol/L | CHLORIDE (120 h, time 5 day): 103 MEQ/L | CHOLESTEROL (120 h, time 5 day): 83 mg/dL | CREATINE PHOSPHOKINASE (120 h, time 5 day): 286 u/L | CREATININE (120 h, time 5 day): 0.2 mg/dL | GLUCOSE (120 h, time 5 day): 154 mg/dL | LACTATE DEHYDROGENASE (120 h, time 5 day): 175.67 u/L | LIPASE (120 h, time 5 day): 9.67 u/L | PHOSPHORUS (120 h, time 5 day): 12.53 mg/dL | POTASSIUM (120 h, time 5 day): 6.34 MEQ/L | SODIUM (120 h, time 5 day): 148.13 MEQ/L | TOTAL BILIRUBIN (120 h, time 5 day): 0.2 mg/dL | TOTAL PROTEIN (120 h, time 5 day): 6.87 G/DL | URIC ACID (120 h, time 5 day): 1.97 mg/dL
